Measurements as given in patent publication US9290485B2, “N-((6-amino-pyridin-3-yl)methyl)-heteroaryl-carboxamides” (NOVARTIS AG, priority 2010, dated 2016).

These compounds were tested against human plasma kallikrein (Homo sapiens (Human), UniProt P03952). Details: human plasma kallikrein 25 pM, substrate 0.5 uM, 1 hour pre-incubation at room temperature, read at t=60 min.
human plasma kallikrein, sequence (P03952 whole entry, looked up): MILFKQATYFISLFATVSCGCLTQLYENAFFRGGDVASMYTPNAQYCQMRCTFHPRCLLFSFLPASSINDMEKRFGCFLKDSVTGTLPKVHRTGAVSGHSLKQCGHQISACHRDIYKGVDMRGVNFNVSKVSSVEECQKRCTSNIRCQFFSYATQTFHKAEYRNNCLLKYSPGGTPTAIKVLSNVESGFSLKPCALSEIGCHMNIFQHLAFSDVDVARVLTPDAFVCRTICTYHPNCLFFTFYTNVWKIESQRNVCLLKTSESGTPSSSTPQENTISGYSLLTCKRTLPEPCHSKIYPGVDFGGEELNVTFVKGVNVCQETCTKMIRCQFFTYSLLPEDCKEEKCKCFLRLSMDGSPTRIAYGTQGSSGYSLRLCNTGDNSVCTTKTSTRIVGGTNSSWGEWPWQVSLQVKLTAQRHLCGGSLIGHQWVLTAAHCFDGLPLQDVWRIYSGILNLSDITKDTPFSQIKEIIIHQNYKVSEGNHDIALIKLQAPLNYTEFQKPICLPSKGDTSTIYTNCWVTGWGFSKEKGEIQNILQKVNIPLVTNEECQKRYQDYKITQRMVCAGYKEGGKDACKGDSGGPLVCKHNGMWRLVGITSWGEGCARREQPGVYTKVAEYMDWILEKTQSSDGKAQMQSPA
human plasma kallikrein, sequence (P03952 whole entry partner, looked up): as the sequence (P03952 whole entry, looked up) above
Experimental: All other chemicals were of analytical grade.
A stock solution of 0.17 mg/ml deinonized water was stored at −80° C. Enzymatic reactions were conducted in ‘assay buffer’, comprising 50 mM Hepes/NaOH at pH 7.8, 150 mM NaCl, 1 mM EDTA and 0.05% (w/v) CHAPS.
Both, enzyme and substrate were diluted in assay buffer.
All protein and peptide containing solutions were handled in siliconized tubes (Life Systems Design, Merenschwand, Switzerland). […] Plate measurements were conducted by the means of a Safire2 reader (TECAN, Maennedorf, Switzerland). The Safire2 is a monochomator-based instrument and wavelengths of 485 nm and 535 nm were taken for fluorescence excitation and emission acquisition, respectively. The bandwidths were set to 10 nm in both the excitation and the emission path. The fluorescence in each well was excited by three flashes per measurement.
The test compound was dissolved in 90% (v/v) DMSO/water. For the assays, 250 nL of the 90% (v/v) DMSO/water solution or compound solution were added per well, followed by the addition of 12.5 μl protease solution (protease in assay buffer). […] After 1 hour of pre-incubation at room temperature, the reactions were started by the addition of 12.5 μl substrate solution (in assay buffer, final assay concentration was 0.5 uM). After the addition of the substrate solution, the final DMSO concentration in the assay was 0.9% (v/v). […] The IC50 value was calculated from the plot of percentage of inhibition vs. inhibitor concentration by a logistics fit according to the following equation: y=A2+(A1−A2)/(1+(x/IC50)^p) where y is the %-inhibition at the inhibitor concentration, x. A1 is the lowest inhibition value, i.e. 0%, and A2 the maximum inhibition value, i.e. 100%. The exponent, p, is the Hill coefficient. The curve fitting was conducted with the non-linear regression routine of the analysis software Origin 7.55R6 (OriginLab Corporation).

Row | SMILES | IC50
1 | COCCN1CCCc2ccc(Cn3cc(C(=O)NCc4c(C)cc(N)nc4C)cn3)cc21 [Example 150, N-((6-Amino-2,4-dimethylpyridin-3-yl)methyl)-1-((1-(2-methoxyethyl)-1,2,3,4-tetrahydroquinolin-7-yl)methyl)-1H-pyrazole-4-carboxamide] | 10 nM
2 | Cc1cc(N)nc(C)c1CNC(=O)c1cnn(Cc2ccc(OC(F)(F)F)cc2)c1 [Example 80, N-((6-amino-2,4-dimethylpyridin-3-yl)methyl)-1-(4-(trifluoromethoxy)benzyl)-1H-pyrazole-4-carboxamide] | 117 nM
3 | Cc1cc(N)nc(C)c1CNC(=O)c1ccn(Cc2ccccc2)c1 [Example 70, N-((6-amino-2,4-dimethylpyridin-3-yl)methyl)-1-benzyl-1H-pyrrole-3-carboxamide] | 4100 nM
4 | Cc1cc(N)nc(C)c1CNC(=O)c1cnn(Cc2ccc(C#N)cc2)c1 [Example 82, N-((6-amino-2,4-dimethylpyridin-3-yl)methyl)-1-(4-cyanobenzyl)-1H-pyrazole-4-carboxamide] | 678 nM
5 | Cc1cc(N)nc(C)c1CNC(=O)c1cn(Cc2ccc3c(c2)c(C)c(C)n3C)nn1 [Example 166, N-((6-amino-2,4-dimethylpyridin-3-yl)methyl)-1-((1,2,3-trimethyl-1H-indol-5-yl)methyl)-1H-1,2,3-triazole-4-carboxamide] | 0.2 nM
6 | Cc1cc(N)nc(C)c1CNC(=O)c1cnn(Cc2cccc(C(=O)N3CCCCC3)c2)c1 [Example 119, N-((6-amino-2,4-dimethylpyridin-3-yl)methyl)-1-(3-(piperidine-1-carbonyl)benzyl)-1H-pyrazole-4-carboxamide] | 289 nM
7 | Cc1cc(N)nc(C)c1CNC(=O)c1coc(Oc2ccccc2)n1 [Example 78, N-((6-amino-2,4-dimethylpyridin-3-yl)methyl)-2-phenoxyoxazole-4-carboxamide] | 10100 nM
8 | Cc1cc(N)nc(C)c1CNC(=O)c1cn(Cc2cccc3ccccc23)nn1 [Example 39, N-((6-amino-2,4-dimethylpyridin-3-yl)methyl)-1-(naphthalen-1-ylmethyl)-1H-1,2,3-triazole-4-carboxamide] | 634 nM
9 | Cc1cc(N)nc(C)c1CNC(=O)c1cnn(Cc2cccc(-c3ccccc3)c2)c1 [Example 115, N-((6-amino-2,4-dimethylpyridin-3-yl)methyl)-1-(biphenyl-3-ylmethyl)-1H-pyrazole-4-carboxamide] | 3.3 nM
10 | Cc1cc(N)nc(C)c1CNC(=O)c1cnn(Cc2cn3ccccc3n2)c1 [Example 30, N-((6-amino-2,4-dimethylpyridin-3-yl)methyl)-1-(imidazo[1,2-a]pyridin-2-ylmethyl)-1H-pyrazole-4-carboxamide] | 204 nM
11 | Cc1cc(N)nc(C)c1CNC(=O)c1cnn(Cc2ccc3ccn(C)c3c2)c1 [Example 34, N-((6-amino-2,4-dimethylpyridin-3-yl)methyl)-1-((1-methyl-1H-indol-6-yl)methyl)-1H-pyrazole-4-carboxamide] | 46 nM
12 | Cc1cc(N)nc(C)c1CNC(=O)c1cnn(Cc2ccc(S(=O)(=O)N(C)C)cc2)c1 [Example 126, N-((6-amino-2,4-dimethylpyridin-3-yl)methyl)-1-(4-(N,N-dimethylsulfamoyl)benzyl)-1H-pyrazole-4-carboxamide] | 670 nM
13 | Cc1cc(N)nc(C)c1CNC(=O)c1cnn(Cc2cccc(C(N)=O)c2)c1 [Example 102, N-((6-amino-2,4-dimethylpyridin-3-yl)methyl)-1-(3-carbamoylbenzyl)-1H-pyrazole-4-carboxamide] | 4000 nM
14 | Cc1cc(N)nc(C)c1CNC(=O)c1coc(Cc2ccccc2)n1 [Example 58, N-((6-amino-2,4-dimethylpyridin-3-yl)methyl)-2-benzyloxazole-4-carboxamide] | 3800 nM
15 | Cc1cc(N)nc(C)c1CNC(=O)c1cc(C)n(Cc2ccccc2)c1C [Example 109, N-((6-amino-2,4-dimethylpyridin-3-yl)methyl)-1-benzyl-2,5-dimethyl-1H-pyrrole-3-carboxamide] | 1300 nM
16 | Cc1cc(N)nc(C)c1CNC(=O)c1cnn(Cc2ccc3c(c2)OCO3)c1 [Example 103, N-((6-amino-2,4-dimethylpyridin-3-yl)methyl)-1-(benzo[d][1,3]dioxol-5-ylmethyl)-1H-pyrazole-4-carboxamide] | 299 nM
17 | COc1ccc(S(=O)(=O)n2ccc(C(=O)NCc3c(C)cc(N)nc3C)c2)cc1 [Example 12, 1-(4-Methoxy-benzenesulfonyl)-1H-pyrrole-3-carboxylic acid (6-amino-2,4-dimethyl-pyridin-3-ylmethyl)-amide] | 1370 nM
18 | Cc1cc(N)nc(C)c1CNC(=O)c1cnn(Cc2ccc(CN3CCCC3)cc2)c1 [Example 118, N-((6-amino-2,4-dimethylpyridin-3-yl)methyl)-1-(4-(pyrrolidin-1-ylmethyl)benzyl)-1H-pyrazole-4-carboxamide] | 183 nM
19 | Cc1cn(Cc2ccccc2)cc1C(=O)NCc1c(C)cc(N)nc1C [Example 76, N-((6-amino-2,4-dimethylpyridin-3-yl)methyl)-1-benzyl-4-methyl-1H-pa role-3-carboxamide] | 949 nM

Row | SMILES | IC50
20 | Cc1cc(N)nc(C)c1CNC(=O)c1ccn(S(=O)(=O)c2ccc3c(c2)N(C)CCO3)c1 [Example 130, N-((6-amino-2,4-dimethylpyridin-3-yl)methyl)-1-(4-methyl-3,4-dihydro-2H-benzo[b][1,4]oxazin-6-ylsulfonyl)-1H-pyrrole-3-carboxamide] | 67 nM
21 | Cc1cc(N)nc(C)c1CNC(=O)c1cnn(Cc2cc3ccsc3c(N)n2)c1 [Example 171, N-((6-Amino-2,4-dimethylpyridin-3-yl)methyl)-1-((7-aminothieno[2,3-c]pyridin-5-yl)methyl)-1H-pyrazole-4-carboxamide] | 26 nM
22 | Cc1cc(N)nc(C)c1CNC(=O)c1cnn(Cc2ccc(-c3ccncc3)cc2)c1 [Example 114, N-((6-amino-2,4-dimethylpyridin-3-yl)methyl)-1-(4-(pyridin-4-yl)benzyl)-1H-pyrazole-4-carboxamide] | 30 nM
23 | Cc1cc(N)nc(C)c1CNC(=O)c1cn(Cc2ccc3ccccc3c2)nn1 [Example 40, N-((6-amino-2,4-dimethylpyridin-3-yl)methyl)-1-(naphthalen-2-ylmethyl)-1H-1,2,3-triazole-4-carboxamide] | 9 nM
24 | Cc1cc(N)nc(C)c1CNC(=O)c1cc(S(=O)(=O)N2CCOCC2)c[nH]1 [Example 52, N-((6-amino-2,4-dimethylpyridin-3-yl)methyl)-4-(morpholinosulfonyl)-1H-pyrrole-2-carboxamide] | 5700 nM
25 | Cc1cc(N)nc(C)c1CNC(=O)c1cnn(Cc2ccc(Cn3ccc(=O)[nH]3)cc2)c1 [Example 139, N-((6-amino-2,4-dimethylpyridin-3-yl)methyl)-1-(4-((3-oxo-2,3-dihydro-1H-pyrazol-1-yl)methyl)benzyl)-1H-pyrazole-4-carboxamide] | 4.9 nM
26 | Cc1cc(N)nc(C)c1CNC(=O)c1cn(Cc2ccc(Oc3ccccc3)cc2)cn1 [Example 23, N-((6-amino-2,4-dimethylpyridin-3-yl)methyl)-1-(4-phenoxybenzyl)-1H-imidazole-4-carboxamide] | 9 nM
27 | Cc1cc(N)nc(C)c1CNC(=O)c1cnn(Cc2ccc3[nH]cnc3c2)c1 [Example 33, 1-((1H-benzo[d]imidazol-5-yl)methyl)-N-((6-amino-2,4-dimethylpyridin-3-yl)methyl)-1H-pyrazole-4-carboxamide] | 262 nM
28 | Cc1cc(N)nc(C)c1CNC(=O)c1cnn(Cc2ccc(COc3ccccc3)cc2)c1 [Example 89, N-((6-amino-2,4-dimethylpyridin-3-yl)methyl)-1-(4-(Phenoxymethyl)benzyl)-1H-pyrazole-4-carboxamide] | 6 nM
29 | Cc1cc(N)nc(C)c1CNC(=O)c1nc(Cc2ccc(Oc3ccccc3)cc2)n[nH]1 [Example 125, N-((6-amino-2,4-dimethylpyridin-3-yl)methyl)-3-(4-phenoxybenzyl)-1H-1,2,4-triazole-5-carboxamide] | 36 nM
30 | Cc1cc(C)c2cc(Cn3cc(C(=O)NCc4ccc(N)nc4C)cn3)c(C)nc2c1 [Example 161, N-((6-amino-2-methylpyridin-3-yl)methyl)-1-((2,5,7-trimethylquinolin-3-yl)methyl)-1H-pyrazole-4-carboxamide] | 4 nM
31 | Cc1cc(N)nc(C)c1CNC(=O)c1cnn(Cc2cccnc2)c1 [Example 98, N-((6-amino-2,4-dimethylpyridin-3-yl)methyl)-1-(pyridin-3-ylmethyl)-1H-pyrazole-4-carboxamide] | 3800 nM
32 | Cc1cc(N)nc(C)c1CNC(=O)c1cn(Cc2ccccc2)cn1 [Example 22, N-((6-amino-2,4-dimethylpyridin-3-yl)methyl)-1-benzyl-1H-imidazole-4-carboxamide] | 1700 nM
33 | Cc1cc(N)nc(C)c1CNC(=O)c1cnn(Cc2ccc(C(=O)N3CCOCC3)cc2)c1 [Example 121, N-((6-amino-2,4-dimethylpyridin-3-yl)methyl)-1-(4-(morpholine-4-carbonyl)benzyl)-1H-pyrazole-4-carboxamide] | 369 nM
34 | Cc1cc(N)nc(C)c1CNC(=O)c1cnn(Cc2cccc(Cl)c2)c1 [Example 92, N-((6-amino-2,4-dimethylpyridin-3-yl)methyl)-1-(3-chlorobenzyl)-1H-pyrazole-4-carboxamide] | 867 nM
35 | COc1cc(Cn2cc(C(=O)NCc3c(C)cc(N)nc3C)cn2)cc(OC)c1 [Example 73, N-((6-amino-2,4-dimethylpyridin-3-yl)methyl)-1-(3,5-dimethoxybenzyl)-1H-pyrazole-4-carboxamide] | 114 nM
36 | Cc1ccc2cc(Cn3cc(C(=O)NCc4ccc(N)nc4C)cn3)ccc2n1 [Example 159, N-((6-amino-2-methylpyridin-3-yl)methyl)-1-((2-methylquinolin-6-yl)methyl)-1H-pyrazole-4-carboxamide] | 7 nM
37 | COCCc1cccc(Cn2cc(C(=O)NCc3c(C)cc(N)nc3C)cn2)c1 [Example 71, N-((6-amino-2,4-dimethylpyridin-3-yl)methyl)-1-(3-(2-methoxyethyl)benzyl)-1H-pyrazole-4-carboxamide] | 190 nM
